Measurements published in article PMC6571673, “Cytostatic and Cytotoxic Natural Products against Cancer Cell Models” (Molecules, 2019).

Tests used:
BJ = assay: CTG viability assay (CellTiter-Glo, 72 h); assay type: cell-based, human; details: Homo sapiens, BJ; CellTiter-Glo, 72 h; non-cancerous cells
Description: (§1) All human cell lines were incubated at 37 °C in a 5% CO2 atmosphere and maintained under sterile conditions. Cells were tested for Mycoplasma (Lonza, Alpharetta, GA, USA) using the manufacturer’s conditions prior to experiments. Cell lines were purchased from American Type Culture Collection (ATCC, Manassas, VA, USA) or Leibniz-Institute Deutsche Sammlung von Mikroorganismen und Zellkulturen GmbH (DSMZ, Braunschweig, Germany) and cultured without antibiotics unless stated. Leukemia cells were cultured in RPMI and supplemented with 10% fetal bovine serum (FBS, Hyclone, Logan, UT, USA). SUP-B15, and KOPN-8 lines were cultured in RPMI supplemented with 10% FBS (Hyclone), 1% GlutaMAX™, 1% Pen/Step, and 0.1% β-mercaptoethanol. BJ cells were cultured in EMEM media supplemented with 10% FBS (Hyclone). Breast cancer cells (MDA-MB-231 & SUM149) were cultured in DMEM and Ham’s F12 respectively, supplemented with 10% FBS, 1% GlutaMAX™, 1% Pen/Step, and 2 µM cortisol/1 µg/mL insulin for SUM149. Both cells were grown to 80% confluence densities as recommended by ATCC. PBMCs were supplemented with concanavalin-A (5 μg/mL) and IL-2 (50 U/ml). To test general cytotoxicity, the following cell numbers were used for 384 well plates: KOPN-8 (ACC 552, infant human B cell precursor acute lymphoblastic leukemia with MLL-MLLt1/ENL fusion, 1000 cells/well), SUP-B15 (ACC389, human B cell precursor acute lymphoblastic leukemia of pediatric second relapse carrying the ALL-variant (m-bcr) of BCR-ABL1 fusion gene (e1-a2), 1600 cells/well), NALM-06 (DSMZ ACC128, non-T/non-B ALL at relapse with P15INK4B and P16INK4A deletions, 1200 cells/well), UoC-B1 (pediatric BCP-ALL at second relapse with TCF3/E2A-HFL fusion, 1000 cells/well), BJ (CRL-2522, normal human foreskin fibroblast cells, 400 cells/well) and PBMCs (periphery blood monocyte cells from healthy donors, IBC#BDC046, 10,000 cells/well).
(§2) Cytotoxicity evaluation was performed using the CellTiter-Glo Luminescent Cell Viability Assay kit (G7570, Promega, Madison, WI, USA), according to the manufacturer’s instructions. Briefly, the cell concentrations used were experimentally determined to ensure logarithmic growth during the 72-h duration of the experiment, and avoid adverse effects on cell growth by DMSO exposure. 1 × 10^3–4.8 × 10^3 or 4 × 10^2–1.2 × 10^3 cells/well were seeded in 96 or 384-well white flat-bottomed plates (3610 or 8804BC, Corning, Corning, NY, USA) in 100 µL or 30 µL/well, respectively. The plates were incubated at 37 °C in 5% CO2 for 24 h before drugging. Test compounds (10 mM in DMSO) in nine 3-fold serial dilutions were dispensed via pintool (Biomek liquid handler, Beckman, Indianapolis, USA) to assay plates. The final concentration of DMSO was 0.3% (v/v) in each well. The positive controls included staurosporine (10 μM), and gambogic acid (10 μM). The plates were incubated for 72 h at 37 °C in 5% CO2, then quenched with CellTiter-Glo® (Promega, Madison, WI, USA, 50 µL/96 or 30 µL/384), centrifuged at 1000 rpm for 1 min and incubated at RT for 20 min. Luminescence was recorded with a plate reader (Envision, Perkin Elmer, Waltham, MA, USA). The mean luminescence of each experimental treatment group was normalized as a percentage of the mean intensity of untreated controls. EC50 values were calculated by Pipeline Pilot software (Accelrys, Enterprise Platform, San Diego, CA, USA).

SUP-B15 [1] = assay: CTG viability assay (CellTiter-Glo, 72 h); assay type: cell-based, human; details: Homo sapiens
Description: as §1, §2

KOPN-8 [2] = assay: CTG viability assay (CellTiter-Glo, 72 h); assay type: cell-based; details: Homo sapiens, mean ± SEM of triplicates
Description: as §1, §2

NALM-06 = assay: CTG viability assay (CellTiter-Glo, 72 h); assay type: cell-based; details: Homo sapiens, mean ± SEM of triplicates
Description: as §1, §2

PBMC = assay: CTG viability assay (CellTiter-Glo, 72 h); assay type: cell-based; details: Homo sapiens, non-cancerous cells
Description: as §1, §2

UoC-B1 = assay: CTG viability assay (CellTiter-Glo, 72 h); assay type: cell-based; details: Homo sapiens, mean ± SEM of triplicates
Description: as §1, §2

KOPN-8 [3] = assay: Cell cycle analysis (PI DNA content, flow cytometry); assay type: cell-based, human; details: KOPN-8, 24 h; silvestrol 5 µM, 8 5 µM, 9 10 µM, 10 5 µM, 12 10 µM, 13 10 µM
Description: (§3) The samples were probed with AnnexinV-FITC (Roche/Boehringer Mannheim, Indianapolis, IN, USA) according to the manufacturer’s instructions. KOPN-8 or SUB-P15 cells were plated (1.00 × 10^6 cells/plate) and incubated for 12 h and incubated at 37 °C. Then, cells were treated with compounds or controls for 24 h. Cells were stained with AnnexinV-FITC, PI and the staining profiles were determined with FACScan and Cell-Quest software. For cellular DNA content, the same cell treatment as above was performed. Then, cells were fixed in cold 75% ethanol, treated with RNase and then stained with PI solution (50 µg/mL). Cell cycle distribution was analyzed with the FACSCalibur analyzer (BD Biosciences, Franklin Lakes, NJ, USA) and Cell-Quest software. The percentage of DNA content at different phases of the cell cycle was analyzed with ModFit-software (version 5.0, Verity Software House, Topsham, ME, USA).

SUP-B15 [4] = assay: as above; assay type: cell-based, human; details: SUP-B15, 24 h; for cell cycle effect: silvestrol 5 µM, 8 5 µM, 9 10 µM, 10 5 µM, 12 10 µM, 13 10 µM
Description: as §3

KOPN-8 [5] = assay: Annexin V/PI apoptosis flow cytometry assay; assay type: cell-based, human; details: KOPN-8, 24 h; for live cells (Annexin-, PI-): 8 5 µM, 9 10 µM, 10 5 µM, 12 10 µM, 13 10 µM; for late apoptotic state or cell death: 10 µM
Description: as §3

SUP-B15 [6] = assay: Annexin V/PI apoptosis flow cytometry assay; assay type: cell-based, human; details: SUP-B15, 24 h; for live cells (Annexin-, PI-): 8 5 µM, 9 10 µM, 10 5 µM, 12 10 µM, 13 10 µM; for late apoptotic state or cell death: 10 µM
Description: as §3

[7] = test system: de novo protein synthesis in MDA-MB-231; assay: EZClick in-cell-click de novo protein synthesis assay; assay type: cell-based, human; details: MDA-MB-231, 2 h exposure time
Text: Protein synthesis is essential in cell growth, proliferation, signaling, differentiation, and death. […] The assay includes a robust chemical method based on an alkyne containing o-propargyl-puromycin probe, which stops translation by forming covalent conjugates with nascent polypeptide chains. Truncated polypeptides are rapidly turned over by the proteasome and can be detected based on the subsequent click reaction with a fluorescent azide. To test whether these compounds (4–14) induced de novo protein synthesis inhibition, compounds were tested for a 2 h exposure time, under the same conditions as the known protein synthesis inhibitor cycloheximide (CHX) in MDA-MB-231 cell model following an in-cell-click de novo protein synthesis assay.
Biovision’s EZClick™ protein synthesis monitoring assay kit (EZClick™ Global Protein Synthesis Assay Kit, Catalog # K715-100, Milpitas, CA, USA) was used according to manufacturer’s protocol. The assay was conducted in 8-well chambered coverslips (ibidi GmbH µ-slide # 80826, Martinsried, Germany). Cells were plated at 2 × 10^4 per well and incubated at 37 °C for 12 h. Then, the cells were treated with compounds for 1.5 h and processed and stained according to protocol (representative images shown in Figure 4). Protein synthesis activity is shown in red, DNA staining is shown in green. Cycloheximide (CHX) was used as a positive control and DMSO as the negative control. Images shown were taken with a Marianas CSU-X spinning disk confocal imaging system (3i, Denver, CO, USA) configured with a Zeiss Axio Observer microscope (Carl Zeiss Inc., Thornwood, NY, USA) with diode lasers, at 63× magnification and resolution of 512 × 512 pixels (3i). For each field of view, an image stack consisting of 20 optical sections were taken at 63× magnification. The total intensity of red and green staining was quantified for the entire image stack. Six fields of view were analyzed per condition. Images shown represent a single optical section for each field of view. For each stack, the red intensity (protein synthesis) was adjusted to the green intensity (DNA content) in each image. The numbers from six images were used to calculate the average and standard deviation for each condition. Numbers were normalized to the negative control value arbitrarily set to one. The Slide viewer 6 software package was used for rendering and analysis of the images.

MDA-MB-231 = assay: Propidium iodide (PI) assay, 48 h; assay type: cell-based, human; details: MDA-MB-231, 48 h
Description: (§4) The first step was to evaluate if the compounds display cytotoxicity against the adherent cells. Propidium iodide (PI) assay was performed for the drug resistant solid tumor cellular models (triple negative breast cancer models: SUM149 and MDA-MB-231) for 48 h (Figure 5) [30, 31].

SUM149 = assay: Propidium iodide (PI) assay, 48 h; details: SUM149, 48 h
Description: as §4

[8] = test system: human cancer cell lines such as oral carcinoma, melanoma, acute myelogenous leukemia, and cervical cancer; design: method as in PMID 15132542, PMID 22128783, PMID 24086701, PMID 19190247; details: several human cancer cell lines; cited from earlier work
[9] = SUP-B15, 72 h, mean ± SEM of triplicates
[10] = SUP-B15, mean ± SEM of triplicates

Structure (SMILES) | EC50 (BJ) | EC50 (SUP-B15 [1]; [9]) | EC50 (KOPN-8 [2]) | EC50 (NALM-06) | EC50 (PBMC) | EC50 (UoC-B1) | cell cycle effect (KOPN-8 [3]) | increase in the percentage of cells in S phase (SUP-B15 [4]; 5 µM) | reduction in the percentage of cells in G2/M phase (SUP-B15 [4]; 5 µM) | live cells (Annexin-, PI-) (KOPN-8 [5]) | live cells (Annexin-, PI-) (SUP-B15 [6]) | de novo protein synthesis inhibition [7] | activity in PI assay (MDA-MB-231) | activity in PI assay (SUM149) | EC50 (SUP-B15 [1]; [10]) | cell cycle effect (SUP-B15 [4]) | IC50 values [8] | reduction in the percentage of cells in the S phase (SUP-B15 [4]; 10 µM) | late apoptotic state or cell death (KOPN-8 [5]) | late apoptotic state or cell death (SUP-B15 [6])
COc1ccc2c(c[n+](C)c3c4cc5c(cc4ccc23)OCO5)c1OC [Compound 8, chelerythrine] | 29.8 µM | 2.77 ± 0.36 µM | 0.821 ± 0.22 µM | 1.9 ± 0.2 µM | 7.89 µM | 1.96 ± 0.28 µM | significant cell arrest in G1/G0 | ~ 20% | ~ 10% | not viable | not viable | no inhibition |  |  |  |  |  |  |  | 
C/C=C1\C(=O)C[C@@]2(O)[C@@H]3CCC4=CC(=O)CC[C@]4(C)[C@H]3CC[C@]12C [Compound 14] | > 43.3 µM | 17.2 ± 4.5 µM | > 43.3 µM | > 43.3 µM | > 43.3 µM | > 21.6 µM |  |  |  |  |  | no protein synthesis inhibition | weakest activity | weakest activity |  |  |  |  |  | 
CC(C)(O)CC[C@@H](O)[C@](C)(O)[C@H]1CC[C@@]2(O)C3=CC(=O)[C@@H]4C[C@@H](O)[C@@H](O)C[C@]4(C)[C@H]3CC[C@]12C [Compound 11] | > 43.3 µM | 29 ± 6 µM | > 43.3 µM | > 43.3 µM | > 43.3 µM | > 21.6 µM |  |  |  |  |  | no protein synthesis inhibition |  |  |  |  |  |  |  | 
COc1ccc(CC2c3cc(O)c(OC)cc3CCN2C)cc1O (centres unmarked) [Compound 4] | > 46.8 µM |  | 32.1 ± 3.5 µM | 18.3 ± 2.5 µM | > 86.8 µM | > 23.4 µM |  |  |  |  |  | Partial protein synthesis inhibition |  |  | 38 ± 6.1 µM |  |  |  |  | 
COc1cc2c(cc1O)[C@H]1Cc3ccc(OC)c(O)c3CN1CC2 [Compound 5] | > 43.3 µM |  | 32 ± 7.6 µM | 8.38 ± 1.8 µM | > 43.3 µM | 17.3 ± 3.8 µM |  |  |  |  |  |  |  |  | 29 ± 3.7 µM |  |  |  |  | 
COC(=O)[C@H]1[C@@H](O)[C@@]2(O)c3c(OC)cc(O[C@@H]4O[C@@H]([C@H](O)CO)CO[C@H]4OC)cc3O[C@@]2(c2ccc(OC)cc2)[C@@H]1c1ccccc1 [Silvestrol, reference compound] |  |  |  |  |  |  | cell arrest in the G1/G0 phase |  |  |  |  |  |  |  |  | cell arrest in the G1/G0 phase | low micromolar range |  |  | 
CCC1CN2CCc3cc(OC)c(OC)cc3C2CC1CC1NCCc2cc(O)c(OC)cc21 (centres unmarked) [Compound 6] | > 43.3 µM |  | 0.16 ± 0.05 µM | 18.4 ± 3.1 µM | > 43.3 µM | > 21.6 µM |  |  |  |  |  |  |  |  | 9.83 ± 0.5 µM |  |  |  |  | 
C[C@H]([C@H](O)CCC(C)(C)O)[C@H]1CC[C@@]2(O)C3=CC(=O)[C@@H]4C[C@@H](O)[C@@H](O)C[C@]4(C)[C@H]3CC[C@]12C [Compound 12, ecdysone] | > 43.3 µM |  | > 43.3 µM | > 43.3 µM | > 43.3 µM | > 21.6 µM | minimal effect on the cell cycle |  |  | small decrease in live cells | small decrease in live cells | little to no protein synthesis inhibition |  |  | 20.1 ± 3.2 µM | arrested G2/M |  | ~ 10% | did not capture significant increase of late apoptotic state or cell death | did not capture significant increase of late apoptotic state or cell death
CC(C)CC[C@@H](O)[C@](C)(O)[C@H]1CC[C@@]2(O)C3=CC(=O)[C@]4(O)C[C@@H](O)[C@@H](O)C[C@]4(C)[C@H]3[C@H](O)C[C@]12C [Compound 13, muristerone A] | > 43.3 µM | 9.5 ± 2.1 µM | > 43.3 µM | 0.518 ± 0.15 µM | > 43.3 µM | > 21.6 µM | minimal effect on the cell cycle |  |  |  |  | little to no protein synthesis inhibition |  |  |  |  |  |  | did not capture significant increase of late apoptotic state or cell death | did not capture significant increase of late apoptotic state or cell death
